From US20180215734A1, “PYRIMIDINE DERIVATIVES AS KINASE INHIBITORS AND THEIR THERAPEUTICAL APPLICATIONS” (NantBioScience, Inc., priority 2016, published 2018)
pIC50: −log10 of the molar value.

Legend:
FGFR1(h) = FGFR1(h) (Homo sapiens, UniProt P11362); assay: Kinase assay, FGFR1(h); format: biochemical
Protocol: (§1) Kinase assay protocols well known to those of ordinary skill in the art were used. Specifically, the buffer composition was as follows: 20 mM MOPS, 1 mM EDTA, 0.01% Brij-35, 5% Glycerol, 0.1% β-mercaptoethanol, 1 mg/mL BSA. Test compounds were initially dissolved in DMSO at the desired concentration, then serially diluted to the kinase assay buffer. In a final reaction volume of 25 μL FGFR1(h) (5-10 mU) and KDR(h) (5-10 mU) are incubated with 8 mM MOPS pH 7.0, 0.2 mM EDTA, 200 μM LRRASLG (Kemptide), 10 mM magnesium acetate and [γ^33P-ATP]. The reaction was initiated by the addition of the MgATP mix. After incubation for 40 minutes at room temperature, the reaction was stopped by addition of 5 μL of a 3% phosphoric acid solution. Ten L of the reaction was then spotted onto a P30 filter mat and washed three times for 5 minutes in 50 mM phosphoric acid and once in methanol prior to drying and scintillation counting. Wells containing substrate but no kinase and wells containing a phosphopeptide control were used to set 0% and 100% phosphorylation value, respectively.
(§2) Of all of the steps in developing a drug, the hardest is finding promising compounds. (See, e.g., Malo et al., “Statistical practice in high-throughput screening data analysis,” Nature Biotechnology, 2006, 24, 167-75.) Kinase inhibitors often also have an anti-proliferative effect. […] The kinase inhibitory activity Compound 19 was tested using the kinase assay described in Example 3. […] These mutations in the tested kinases are thought to play an important role in transformation of some cancers.

KDR(h) = KDR(h) (Homo sapiens, UniProt P35968); assay: Kinase assay, KDR(h); format: biochemical
Protocol: as §1, §2

SNU16 = assay: Inhibition of proliferation (CellTiterblue, 72 hr), SNU16; format: cell-based; settings: Homo sapiens, SNU-16, 72 h
Protocol: A number of studies were performed to analyze the consequences of tyrosine kinase inhibition in cell lines. To do this, 1000 cells are seeded in 27 μl/well in 384-well microplates, which are then placed in a humidified CO2 incubator at 37° C. overnight. The next day, 3 μl/well of 10× concentrated drug is added and the plates are returned to the incubator for 72 hr. After 72 hr incubation, plates are removed and 6 μl/well CellTiterblue (Promega) viability reagent is added. Plates are returned to the incubator for 3 hrs, after which fluorescence measurements are read on the Victor X3 plate reader (Perkin Elmer). Data are analyzed using Excel (Microsoft), and GI50 values are determined using Prism (Graphpad).

FGFR2(N549H)(h) = FGFR2(N549H)(h) (Homo sapiens, UniProt P21802, N549H); assay: Kinase assay, FGFR2(N549H)(h); format: biochemical
FGFR3(h) = FGFR3(h) (Homo sapiens, UniProt P22607); assay: Kinase assay, FGFR3(h); format: biochemical
FGFR4(h) = FGFR4(h) (Homo sapiens, UniProt P22455); assay: Kinase assay, FGFR4(h); format: biochemical
Flt4(h) = Flt4(h) (Homo sapiens, UniProt P35916); assay: Kinase assay, Flt4(h); format: biochemical
Lck(h) = Lck(h) (Homo sapiens, UniProt P06239); assay: Kinase assay, Lck(h); format: biochemical
Aurora-A (h) = Aurora-A (h) (Homo sapiens, UniProt O14965); assay: Kinase assay, Aurora-A (h); format: biochemical
IGF-1R(h) = IGF-1R(h) (Homo sapiens, UniProt P08069); assay: Kinase assay, IGF-1R(h); format: biochemical
AJK2(h) = AJK2(h) (Homo sapiens, UniProt O60674); assay: Kinase assay, AJK2(h); format: biochemical
Ret(h) = Ret(h) (Homo sapiens, UniProt P07949); assay: Kinase assay, Ret(h); format: biochemical
Tie2(h) = Tie2(h) (Homo sapiens, UniProt Q02763); assay: Kinase assay, Tie2(h); format: biochemical
Parental BaF3 cells = assay: BaF3 cell model, Parental; format: cell-based; settings: Mus musculus, read-out: IC5o(nM) Parental
From the text: (§3) In FIG. 1 these kinases are from the fibroblast growth factor receptor class of kinases (FGFR1-FGFR4). Compound 19 kinase inhibitory activity FGFR1-FGFR4 are also depicted in Table 5.

FGFR2 = target: T1, FGFR2 (Homo sapiens, UniProt P21802); assay: BaF3 cells engineered for expression of FGFR2; format: cell-based; settings: read-out: IC5o(nM) FGFR2
T1 construct: expressed in transfected cells; host or cells: BaF3
From the text: as §3

FGFR4 = target: T2, FGFR4 (Homo sapiens, UniProt P22455); assay: BaF3 cells engineered for expression of FGFR4; format: cell-based; settings: read-out: IC5o(nM) FGFR4
T2 construct: expressed in transfected cells; host or cells: BaF3
From the text: as §3

[1] = Pharmacokinetic profile in rats; format: in vivo; settings: Rat
From the text: Compound 19's pharmacokinetic profile is consistent with Compound 19 being used as a therapeutic agent.

[2] = Cellular toxicity, HepG2 cell line; format: cell-based; settings: human, HepG2 cells
From the text: (§4) Table 9 discloses toxicity data for compound 19 from various toxicity tests well known to those of ordinary skill.

[3] = Cellular toxicity, primary human hepatocyte; format: cell-based; settings: primary hepatocytes
From the text: as §4

[4] = In vivo acute toxicity, MTD; settings: PO, rat
From the text: as §4

CYP450 1A2 = CYP450 1A2 (Homo sapiens, UniProt P05177); assay: CYP450 inhibition, 1A2; format: in vitro ADME
From the text: as §4

CYP450 2C9 = CYP450 2C9 (Homo sapiens, UniProt P11712); assay: CYP450 inhibition, 2C9; format: in vitro ADME
From the text: as §4

CYP450 3A4 = CYP450 3A4 (Homo sapiens, UniProt P08684); assay: CYP450 inhibition, 3A4; format: in vitro ADME
From the text: as §4

nude mouse model of AML = assay: Nude mouse model of AML (FIG. 2, FIG. 3); format: in vivo

Chain of KDR(h) (P35968 20-1356): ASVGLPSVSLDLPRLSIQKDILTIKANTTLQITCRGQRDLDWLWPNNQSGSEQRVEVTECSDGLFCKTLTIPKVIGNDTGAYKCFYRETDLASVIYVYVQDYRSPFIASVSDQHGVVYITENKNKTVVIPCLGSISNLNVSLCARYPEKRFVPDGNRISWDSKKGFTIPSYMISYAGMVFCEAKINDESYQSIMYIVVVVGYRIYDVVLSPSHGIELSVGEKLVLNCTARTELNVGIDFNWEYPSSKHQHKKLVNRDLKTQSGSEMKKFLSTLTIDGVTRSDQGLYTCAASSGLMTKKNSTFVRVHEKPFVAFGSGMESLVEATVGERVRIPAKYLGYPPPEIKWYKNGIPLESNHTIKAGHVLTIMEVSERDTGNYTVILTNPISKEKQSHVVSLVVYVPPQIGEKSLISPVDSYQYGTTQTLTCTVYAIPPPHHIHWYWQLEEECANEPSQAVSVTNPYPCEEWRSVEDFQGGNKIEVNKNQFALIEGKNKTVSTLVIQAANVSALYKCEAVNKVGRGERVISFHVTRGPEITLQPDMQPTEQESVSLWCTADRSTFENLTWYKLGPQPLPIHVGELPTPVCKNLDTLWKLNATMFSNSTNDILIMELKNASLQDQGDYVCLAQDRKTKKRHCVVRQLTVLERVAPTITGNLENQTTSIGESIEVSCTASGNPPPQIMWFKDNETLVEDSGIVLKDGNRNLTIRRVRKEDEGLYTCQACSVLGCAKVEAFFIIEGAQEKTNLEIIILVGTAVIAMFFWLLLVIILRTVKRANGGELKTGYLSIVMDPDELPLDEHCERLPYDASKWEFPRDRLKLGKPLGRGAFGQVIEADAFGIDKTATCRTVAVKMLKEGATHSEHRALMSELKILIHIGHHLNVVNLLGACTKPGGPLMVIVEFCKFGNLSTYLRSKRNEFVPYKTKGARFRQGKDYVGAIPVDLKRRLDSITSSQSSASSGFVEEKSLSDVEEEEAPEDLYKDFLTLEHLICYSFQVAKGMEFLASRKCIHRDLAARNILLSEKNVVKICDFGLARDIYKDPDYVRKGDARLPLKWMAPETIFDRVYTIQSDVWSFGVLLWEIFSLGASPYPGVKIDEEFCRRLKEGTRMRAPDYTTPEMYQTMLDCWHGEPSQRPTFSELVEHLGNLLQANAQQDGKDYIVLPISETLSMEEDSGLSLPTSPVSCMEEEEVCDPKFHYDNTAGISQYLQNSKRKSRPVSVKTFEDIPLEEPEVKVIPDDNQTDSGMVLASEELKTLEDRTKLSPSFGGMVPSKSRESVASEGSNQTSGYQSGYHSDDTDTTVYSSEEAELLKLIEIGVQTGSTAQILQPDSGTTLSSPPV
Chain of FGFR1(h) (P11362 22-822): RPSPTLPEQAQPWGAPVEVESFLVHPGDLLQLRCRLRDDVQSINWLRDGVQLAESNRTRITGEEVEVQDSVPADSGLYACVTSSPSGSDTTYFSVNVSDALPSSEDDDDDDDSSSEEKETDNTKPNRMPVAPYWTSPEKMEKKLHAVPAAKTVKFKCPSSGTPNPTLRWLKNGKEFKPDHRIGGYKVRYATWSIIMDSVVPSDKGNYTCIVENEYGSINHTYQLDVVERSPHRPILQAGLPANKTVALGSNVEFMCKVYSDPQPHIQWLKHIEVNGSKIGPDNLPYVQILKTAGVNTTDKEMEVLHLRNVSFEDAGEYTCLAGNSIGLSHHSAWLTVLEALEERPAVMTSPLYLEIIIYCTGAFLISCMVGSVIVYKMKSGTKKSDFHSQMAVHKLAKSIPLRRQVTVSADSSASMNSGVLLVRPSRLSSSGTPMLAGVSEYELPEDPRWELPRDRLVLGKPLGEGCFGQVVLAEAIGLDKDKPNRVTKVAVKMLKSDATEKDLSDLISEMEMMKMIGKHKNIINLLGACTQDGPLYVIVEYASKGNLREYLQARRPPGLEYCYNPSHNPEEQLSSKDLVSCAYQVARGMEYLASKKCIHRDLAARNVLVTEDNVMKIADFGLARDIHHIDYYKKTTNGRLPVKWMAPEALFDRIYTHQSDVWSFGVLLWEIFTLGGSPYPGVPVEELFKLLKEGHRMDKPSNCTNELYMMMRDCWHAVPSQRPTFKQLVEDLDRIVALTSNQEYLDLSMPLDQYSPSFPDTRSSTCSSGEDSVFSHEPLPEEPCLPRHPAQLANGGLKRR
Chain of IGF-1R(h) (P08069 31-1367): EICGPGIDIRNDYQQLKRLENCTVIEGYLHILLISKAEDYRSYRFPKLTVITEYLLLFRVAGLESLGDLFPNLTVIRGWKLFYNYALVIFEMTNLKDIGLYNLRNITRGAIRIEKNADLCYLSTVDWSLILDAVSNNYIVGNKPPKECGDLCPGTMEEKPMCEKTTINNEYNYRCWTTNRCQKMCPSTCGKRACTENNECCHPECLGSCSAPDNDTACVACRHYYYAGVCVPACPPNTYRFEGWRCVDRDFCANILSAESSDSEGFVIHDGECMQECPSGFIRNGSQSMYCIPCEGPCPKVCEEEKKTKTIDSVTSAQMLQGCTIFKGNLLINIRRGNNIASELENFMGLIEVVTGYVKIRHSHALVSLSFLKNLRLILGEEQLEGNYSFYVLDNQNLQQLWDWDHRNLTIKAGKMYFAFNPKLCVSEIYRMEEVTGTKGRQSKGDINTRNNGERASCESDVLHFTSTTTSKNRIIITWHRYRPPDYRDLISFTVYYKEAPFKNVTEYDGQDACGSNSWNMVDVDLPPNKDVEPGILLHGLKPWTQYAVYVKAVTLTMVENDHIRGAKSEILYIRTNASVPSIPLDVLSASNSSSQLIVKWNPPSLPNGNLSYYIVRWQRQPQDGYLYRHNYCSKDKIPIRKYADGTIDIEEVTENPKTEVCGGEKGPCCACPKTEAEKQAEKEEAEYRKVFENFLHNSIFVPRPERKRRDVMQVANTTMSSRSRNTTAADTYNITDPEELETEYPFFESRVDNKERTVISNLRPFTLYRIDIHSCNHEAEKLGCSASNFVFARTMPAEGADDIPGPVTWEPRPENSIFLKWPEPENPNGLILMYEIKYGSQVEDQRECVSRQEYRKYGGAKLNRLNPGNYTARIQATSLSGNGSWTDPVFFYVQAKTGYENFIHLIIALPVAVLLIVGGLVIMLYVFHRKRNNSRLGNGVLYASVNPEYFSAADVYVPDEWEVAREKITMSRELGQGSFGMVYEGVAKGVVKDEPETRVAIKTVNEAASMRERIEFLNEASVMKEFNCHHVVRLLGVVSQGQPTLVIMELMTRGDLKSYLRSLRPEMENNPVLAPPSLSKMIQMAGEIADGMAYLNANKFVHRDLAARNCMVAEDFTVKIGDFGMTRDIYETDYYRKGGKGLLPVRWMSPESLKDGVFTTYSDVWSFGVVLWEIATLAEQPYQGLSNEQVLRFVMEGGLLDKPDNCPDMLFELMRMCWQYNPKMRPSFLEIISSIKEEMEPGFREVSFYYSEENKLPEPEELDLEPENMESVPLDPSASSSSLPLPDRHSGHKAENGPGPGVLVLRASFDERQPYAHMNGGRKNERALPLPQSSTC
Chain of CYP450 1A2 (P05177 whole entry): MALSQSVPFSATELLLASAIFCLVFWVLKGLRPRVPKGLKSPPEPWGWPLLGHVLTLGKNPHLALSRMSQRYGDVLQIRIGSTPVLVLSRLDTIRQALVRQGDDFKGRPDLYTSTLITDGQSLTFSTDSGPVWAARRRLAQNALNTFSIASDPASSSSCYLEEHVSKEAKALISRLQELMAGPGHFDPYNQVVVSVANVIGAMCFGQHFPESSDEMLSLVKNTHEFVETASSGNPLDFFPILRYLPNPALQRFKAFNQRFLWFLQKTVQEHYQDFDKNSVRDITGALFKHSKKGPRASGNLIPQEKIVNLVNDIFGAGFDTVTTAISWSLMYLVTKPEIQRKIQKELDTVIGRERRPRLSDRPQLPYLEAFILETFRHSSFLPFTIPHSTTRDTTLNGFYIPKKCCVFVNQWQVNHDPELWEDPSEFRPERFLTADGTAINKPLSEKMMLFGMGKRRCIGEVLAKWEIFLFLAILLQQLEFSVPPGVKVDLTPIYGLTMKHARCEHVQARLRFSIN
Chain of Aurora-A (h) (O14965 whole entry): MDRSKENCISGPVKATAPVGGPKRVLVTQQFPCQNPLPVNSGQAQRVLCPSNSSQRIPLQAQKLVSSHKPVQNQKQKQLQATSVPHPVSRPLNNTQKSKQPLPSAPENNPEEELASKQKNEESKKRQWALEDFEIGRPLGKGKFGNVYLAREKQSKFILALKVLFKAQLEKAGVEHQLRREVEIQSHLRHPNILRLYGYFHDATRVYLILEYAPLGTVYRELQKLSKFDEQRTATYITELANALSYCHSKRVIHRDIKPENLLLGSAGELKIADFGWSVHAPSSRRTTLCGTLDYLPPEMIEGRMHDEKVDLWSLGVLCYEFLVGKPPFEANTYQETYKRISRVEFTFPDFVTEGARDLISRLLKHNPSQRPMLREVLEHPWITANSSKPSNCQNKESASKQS
Chain of Lck(h) (P06239 whole entry): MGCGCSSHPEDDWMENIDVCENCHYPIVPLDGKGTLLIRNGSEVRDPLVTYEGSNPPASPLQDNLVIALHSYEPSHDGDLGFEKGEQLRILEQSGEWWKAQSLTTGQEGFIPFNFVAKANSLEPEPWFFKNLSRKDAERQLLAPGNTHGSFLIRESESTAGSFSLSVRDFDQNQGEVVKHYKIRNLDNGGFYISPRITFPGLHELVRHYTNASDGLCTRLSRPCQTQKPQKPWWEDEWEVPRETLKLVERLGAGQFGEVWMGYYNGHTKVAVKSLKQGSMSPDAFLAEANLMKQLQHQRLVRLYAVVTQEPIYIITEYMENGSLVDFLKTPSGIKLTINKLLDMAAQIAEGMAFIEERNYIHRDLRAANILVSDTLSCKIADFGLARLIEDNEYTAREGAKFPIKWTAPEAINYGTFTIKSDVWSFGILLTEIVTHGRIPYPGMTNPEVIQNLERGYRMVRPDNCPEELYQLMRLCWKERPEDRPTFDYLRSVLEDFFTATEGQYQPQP

## Cc1cc2c(F)c(Oc3ncnc(Nc4ccc(N5C[C@@H](C)N[C@@H](C)C5)cc4)c3C#N)cc(F)c2[nH]1 [Compound 19]
FGFR1(h)
  pIC50: 9.05
FGFR1(h); 1 μM
  inhibition at 1 µM: 100%
KDR(h)
  pIC50: 6.31
  inhibition at 1 µM: 86%
SNU16
  GI50: 12 nM
FGFR2(N549H)(h)
  pIC50: 8.15
FGFR3(h)
  pIC50: 7.92
FGFR4(h)
  pIC50: 7.92
Flt4(h)
  pIC50: 6.94
Lck(h)
  pIC50: < 6.00
Aurora-A (h)
  pIC50: < 6.00
IGF-1R(h)
  pIC50: < 6.00
AJK2(h)
  pIC50: < 6.00
Ret(h)
  pIC50: < 6.00
Tie2(h)
  pIC50: < 6.00
Parental BaF3 cells
  IC50: 1890 nM
FGFR2
  IC50: 17.6 nM
FGFR4
  IC50: 92.1 nM
[1]; PO 5 mg/Kg
  Oral Bioavailability (% F): 76 % F
[1]; in vivo, IV 1 mg/Kg
  clearance: 17.6 mL/min/kg
[1]; in vivo, IV 1 mg/Kg, read-out: Terminal Half Life (converted)
  half-life: 6.81 h
[1]; in vivo, IV 1 mg/Kg, read-out: Vz
  Vd: 9.54 L/kg
[2]
  CC50: 1900 nM
[3]
  CC50: 20000 nM
[4]
  MTD: 100 mg/kg
CYP450 1A2
  pIC50: 4.14
CYP450 2C9
  pIC50: 4.48
CYP450 3A4
  pIC50: 4.17
Nude mouse model of AML; both dosages tested
  Antitumor activity (tumor cells expansion), FIG. 2: near complete suppression of the tumor cells expansion
Nude mouse model of AML; vs control
  Animal weight as surrogate marker for toxicity, FIG. 3: no difference between the control and compound 19 treated animals
